Series [1] in a line: Saturation concentration in de-ionized water. The note with it: DI water. In kind it is physicochemical. The procedure: Bupivacaine hydrochloride (Sigma-Aldrich Corporation, St. Louis, Mo.) was dissolved in de-ionized (DI) water at a concentration of 40 mg/ml (saturation). A calculated amount of sodium hydroxide (1 N solution) was added to the solution and the pH of the final mixtures was adjusted to 10 to precipitate the BP base. The precipitated product was filtered, and further washed with DI water for at least three times. The precipitated product was dried at approximately 40° C. in vacuum for 24 hours.

For series [2] the following is noted: cited from earlier work.

Data on two compounds can be found in patent publication US20120177697A1, “Excipients In Drug Delivery Vehicles” (Durect Corporation, priority 2003, published 2012).

Structures can show the parent of a compound that is named as a salt.

Regarding `CCCCN1CCCCC1C(=O)Nc1c(C)cccc1C` (centres unmarked) [Bupivacaine hydrochloride], the “concentration in de-ionized water at saturation” value in series [1] was 40000 µg/mL.

`CC(=O)OCC(COC(C)=O)OC(C)=O` [triacetin]: the “reported solubility in water” value in series [2] is listed as 7.17 grams in 100 ml of water.
